Laboratory results from paper PMC6155631, “Immobilized Trienzymatic System with Enhanced Stabilization for the Biotransformation of Lactose” (Molecules : A Journal of Synthetic Chemistry and Natural …, 2017).

Target: T1, β-galactosidase from Bacillus circulans (Biolacta N-5) (Niallia circulans, UniProt E5RWQ2)
T1 construct: gene bga; commercial Biolacta N-5 (Daiwa Kasei), partially purified; several isoforms, called monomeric
Test: batch hydrolysis, HPLC
Assay type: biochemical
Conditions: soluble enzyme together with P1 and P2; Mozzarella whey lactose, 50 °C, 6 h
Excerpt: batch hydrolysis, HPLC on β-galactosidase from Bacillus circulans (Biolacta N-5)

T1 sequence (E5RWQ2 24-1737): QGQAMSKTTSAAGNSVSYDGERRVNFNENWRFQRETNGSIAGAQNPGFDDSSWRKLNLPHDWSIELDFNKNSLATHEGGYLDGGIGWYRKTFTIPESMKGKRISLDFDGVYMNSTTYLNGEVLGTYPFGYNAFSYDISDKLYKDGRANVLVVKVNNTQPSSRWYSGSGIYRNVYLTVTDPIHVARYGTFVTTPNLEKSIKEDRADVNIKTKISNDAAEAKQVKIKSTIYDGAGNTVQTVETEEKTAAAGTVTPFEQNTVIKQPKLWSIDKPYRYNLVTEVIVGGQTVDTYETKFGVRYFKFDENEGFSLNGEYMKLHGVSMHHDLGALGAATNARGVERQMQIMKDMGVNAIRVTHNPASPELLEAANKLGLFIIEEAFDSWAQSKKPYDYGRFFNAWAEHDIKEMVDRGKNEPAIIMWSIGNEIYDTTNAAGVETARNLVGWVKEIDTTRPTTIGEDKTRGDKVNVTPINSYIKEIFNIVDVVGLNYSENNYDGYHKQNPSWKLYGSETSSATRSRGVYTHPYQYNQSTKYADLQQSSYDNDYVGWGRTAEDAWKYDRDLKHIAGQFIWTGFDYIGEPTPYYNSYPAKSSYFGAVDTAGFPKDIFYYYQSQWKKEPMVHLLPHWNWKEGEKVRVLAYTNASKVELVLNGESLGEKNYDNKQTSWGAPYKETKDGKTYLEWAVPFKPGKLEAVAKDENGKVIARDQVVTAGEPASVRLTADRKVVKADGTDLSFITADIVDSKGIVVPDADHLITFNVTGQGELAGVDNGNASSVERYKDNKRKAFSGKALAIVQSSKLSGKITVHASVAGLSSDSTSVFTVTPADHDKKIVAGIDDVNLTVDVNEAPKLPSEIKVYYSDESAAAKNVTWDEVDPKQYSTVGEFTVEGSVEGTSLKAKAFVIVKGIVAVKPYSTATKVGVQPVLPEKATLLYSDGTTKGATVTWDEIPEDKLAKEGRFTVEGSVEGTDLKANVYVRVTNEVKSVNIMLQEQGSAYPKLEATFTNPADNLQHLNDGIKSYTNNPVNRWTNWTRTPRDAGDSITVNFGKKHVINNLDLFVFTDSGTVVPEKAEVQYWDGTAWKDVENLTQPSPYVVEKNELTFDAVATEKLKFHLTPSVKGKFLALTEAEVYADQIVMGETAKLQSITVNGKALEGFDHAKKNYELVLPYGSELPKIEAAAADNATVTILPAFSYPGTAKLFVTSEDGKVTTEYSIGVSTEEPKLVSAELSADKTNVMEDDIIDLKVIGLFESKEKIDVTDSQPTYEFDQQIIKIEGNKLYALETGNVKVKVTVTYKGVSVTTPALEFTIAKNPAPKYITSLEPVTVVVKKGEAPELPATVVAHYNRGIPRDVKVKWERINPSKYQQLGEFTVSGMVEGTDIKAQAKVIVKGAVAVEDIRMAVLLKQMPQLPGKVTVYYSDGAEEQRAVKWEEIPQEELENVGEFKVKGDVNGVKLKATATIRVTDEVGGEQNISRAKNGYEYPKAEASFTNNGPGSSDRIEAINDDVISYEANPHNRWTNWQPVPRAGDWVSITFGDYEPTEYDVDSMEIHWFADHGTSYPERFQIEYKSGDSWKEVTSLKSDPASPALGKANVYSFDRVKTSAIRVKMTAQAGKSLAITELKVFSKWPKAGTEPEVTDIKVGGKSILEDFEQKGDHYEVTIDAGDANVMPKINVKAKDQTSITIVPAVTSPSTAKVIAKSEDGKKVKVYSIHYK

OC[C@H]1O[C@@H](O[C@H]2[C@H](O)[C@@H](O)C(O)O[C@@H]2CO)[C@H](O)[C@@H](O)[C@H]1O (stereo partly shown) [lactose]
Lactolysis (%): 76 ± 1%
